Assays:
Format in all cases: in vivo, rat
[1] = system: Male Sprague-Dawley rats; experiment: High resolution radiograms of left and right femurs, Groups K-R; details: left femur with bmx, agent daily for 21 days
Source text: FIG. 10 (a-b) presents high resolution radiograms of the left and right femurs, respectively, from an additional series of experiments on additional groups of male Sprague-Dawley rats (6 rats per group) aged 9 weeks which were sacrificed and tested after 21 days (3 weeks). The various groups were subjected to the following treatment modalities: Group K—control day 0; Group L—control day 21; Group M—bone marrow ablation (bmx) day 0; Group N—sham day 21; Group O— bmx+phosphate buffer saline (PBS) daily for 21 days; Group P—bmx+PTH[1-34]-NH2 daily for 21 days; Group Q—bmx+ parathyroid hormone related peptide (PTHRP) daily for 21 days; and Group R—bmx+rat α-calcitonin gene related peptide (CGRP) daily for 21 days;
FIG. 10 (a-b) presents a set of high resolution radiograms of the entire left and right femurs of additional (to those described above) groups of rats, injected daily for a designated term with one or more of the following agents: phosphate buffer saline (PBS); parathyroid hormone (PTH[1-34]-NH2); parathyroid hormone related peptide (PTHrP); and calcitonin gene related peptide (CGRP). The rats chosen for test subjects were subjected to the following treatment modalities (as indicated in the lower left corner of each of the radiograms): control day 0; control day 21; bone marrow ablation (bmx) day 0; sham day 21; bmx followed by injection of PBS buffer daily for 21 days; bmx followed by injection of PTH daily for 21 days; bmx followed by injection of PTHrP daily for 21 days; and bmx followed by injection of CGRP daily for 21 days.
As shown by FIG. 10(a), the best results, i.e., the greatest bone density, was obtained in the left femur wherein the effect of the bone marrow ablation overlapped with that attributable to the administration of the various anabolic agents. As in the case of FIG. 3, the lighter, i.e, more radio-opaque, areas indicate the locations of the greatest additional bone growth.

[2] = system: Male Sprague-Dawley rats; experiment: High resolution radiograms of left and right femurs, Groups A-J; details: left femur with bmx, 21 days
Protocol: FIG. 3 (a-e) present high resolution radiograms of, respectively, the left (ablated) and right (non-ablated) femurs of some of the rats described with regard to FIGS. 1 and 2 above. (See discussion below of Tables 1 and 2) The radiographs were taken three weeks (i.e., 21 days) following commencement of treatment. The rats were treated as follows: (a) control (i.e., no surgery); (b) sham (i.e., surgery without marrow ablation); (c) mechanical bone marrow ablation (bmx)+phosphate buffer saline (PBS) administration daily for 21 days; (d) bmx followed by parathyroid hormone (PTH[1-34]-NH2) administered daily for 21 days; and (e) bmx followed by parathyroid hormone (PTH[1-34]-NH2) administered daily for 7 days and then salmon calcitonin given daily from days 7-21. A marking of bmx with regard to a right (non-ablated) femur means that
FIG. 3 presents a set of high resolution radiograms of the entire left and right femurs from rats taken from some of the groups A-J described above. In each of the views shown, the treatment modality is indicated in the lower left corner of the radiogram. The following abbreviations are used: Control=no surgery; Sham=surgery without any bone marrow ablation; BMX=bone marrow ablation; PBS=phosphate buffer saline; PTH=parathyroid hormone (PTH[1-34]-NH2); and CT= salmon calcitonin. […]

[3] = system: osteoporotic female Sprague-Dawley rats; experiment: Lumbar vertebral bone mineral density and bone formation rate in ovariectomized osteoporotic rats, without mechanical induction; details: OVX rats, 4 weeks subcutaneous treatment, no mechanical induction
Protocol: FIG. 15 is a bar graph comparing the Lumbar Vertebral Bone Mineral Density obtained in osteoporotic female Sprague-Dawley rats wherein the osteoporosis was induced via an ovariectomy. The rats were treated with (1) PTH[1-31]-NH2; (2) PTH[1-34]-NH2; and PTH[1-34]-OH; and
FIG. 16 is a bar graph comparing the Lumbar Vertebral Bone Formation Rate obtained in osteoporotic female Sprague-Dawley rats wherein the osteoporosis was induced via an ovariectomy. The rats were treated with (1) PTH[1-31]-NH2; (2) PTH[1-34]-NH2; and PTH[1-34]-OH.
A series of experiments was performed comparing (1) lumbar vertebral bone mineral density, and (2) lumbar vertebral bone formation rate achieved with PTH[1-31]-NH2 and PTH[1-34]-OH compared to the preferred PTH[1-34]-NH2 analog discussed above in the absence of the mechanical induction step of the invention. The study involved a four-week treatment of female Sprague-Dawley rats at 10 months of age, and 6 months post-ovariectomy (“OVX”), which induces osteoporosis, with one of the three above-noted parathyroid hormone truncates. The rats were randomized into the following groups: sham OVX, OVX+ vehicle, OVX+PTH [1-31]-NH2 or PTH [1-34]-NH2 (obtained from Unigene Laboratories, Inc.) at 2.5, 10 or 40 μg/kg/day subcutaneous, or PTH[1-34]-OH (obtained from Bachem) at 10 μg/kg/day subcutaneous. After 4 weeks of treatment, the right femur of each animal was analyzed by DEXA and bone histomorphometry. FIG. 15 is a bar graph providing a comparison of the lumbar vertebral bone mineral density achieved with PTH[1-31]-NH2, PTH[1-34]-NH2 and PTH[1-34]-OH. FIG. 16 is a bar graph comparing the lumbar vertebral formation rates achieved with these same truncates. […] Because of the similarity of anabolic action among the above-discussed parathyroid hormones, it is therefore reasonable to expect that all known PTH analogs will advantageously function in the desired manner in the method of the present invention.

PTH[1-34]-NH2 was tested, and the “bone density on radiograms, in words” value [1] was “best results”, the “bone growth on radiograms, in words” value [2] was “greatest bone growth” and the “bone anabolic activity (lumbar vertebral bone mineral density and bone formation rate)” value [3] was “substantially equivalent”.
